Columns and labels:
HC11 cells = assay: FACS DNA content analysis of HC11 cells during lactogenic differentiation; assay type: cell-based, mouse; conditions: HC11, doxorubicin 50 nM
Method: The HC11 cell line was obtained from American Type Culture Collection (ATCC) and routinely checked for mycoplasma (Mycoplasma PCR kit, ABM, G238). Undifferentiated HC11 cells were cultured in growing medium (RPMI-1640; Thermo Fisher Scientific, 72400047), supplemented with 10% FBS, 5 μg/ml insulin (Millipore-Sigma, 16634), 10 ng/ml epidermal growth factor (EGF; Preprotech, AF-100-15) and 1× AntiAnti (Thermo Fisher Scientific, 15240112) at 37° C. with 5% CO2. Cells were grown to confluency and maintained in growing medium for 2 days, until they became competent. Competent HC11 cells were primed for differentiation by culturing them in priming medium [RPMI-1640 supplemented with 5 μg/ml insulin, 1 μM dexamethasone (Millipore-Sigma, D4902-1 G) and 1× Anti-Anti] for 24 h at 37° C. with 5% CO2. To induce differentiation, primed HC11 cells were cultured in DIP Medium [RPMI-1640, supplemented with 10% FBS, 5 μg/ml insulin, 1 μM dexamethasone, 1× anti-anti and 3 μg/ml Prolactin (NHPP, oPRL-21)] at 37° C. with 5% CO2.
[…] Drugs were maintained through the differentiation process and added with every change of media.
For DNA content analysis of the mammary gland CK8^+ epithelial population, mammary gland cells suspension was obtained as described above. Cells were fixed in ice-cold 70% EtOH at a final concentration of 10^6 cells/ml. During fixation, cells were vigorously vortexed for 1 min to avoid the formation of cell aggregates. Cells were washed twice with washing buffer [1×PBS containing 5% FBS and 0.5% tween 20 (Fisher Chemical, BP337500)] and centrifuged at 2,000 rpm for 5 min at 4° C. Cell pellet was incubated for 1 h at room temperature with anti-CK8 (Developmental Studies Hybridoma Lab, TROMA-1), anti-GFP (Thermo Fisher, A01704) or corresponding rat (Thermo-Fisher, 10700) or rabbit (Thermo-Fisher, 10500C) IgG isotype controls. Cells were washed twice and incubated for 1 h at room temperature in darkness with FITC anti-Rat (Thermo Fisher, A24544) or FITC anti-Rabbit (Thermo Fisher, A16030) and APC anti-Rat (Jackson ImmunoResearch, 712-136-153). Cells were washed twice and resuspended in propidium iodide solution [1×PBS containing 25 μg/ml of propidium iodide (Thermo Fisher, P3566) and 100 μg/ml of RNAse (Thermo Fisher, 12091021)]. For DNA content analysis on HC11, cells were washed with 1×DPBS (GIBCO, 14190-250) and harvested using 0.05% Trypsin-EDTA (GIBCO, 25300-062). Cell suspension was washed with 1×DPBS and centrifuged at 1,000 rpm for 5 min at 4° C. Cell pellet was fixed in ice-cold 70% EtOH and then vortexed vigorously to avoid cell aggregates. After fixation, cells were washed with washing buffer [1×PBS (GIBCO, 14190136) supplemented with 5% FBS] and centrifuged at 2,000 rpm for 5 min at 4° C. The pellet was resuspended in propidium iodide solution. Cell suspensions were filtered through a 70 μm cell strainer (Falcon, 08-771-2) and analyzed using a BD LSRII cytometer or a BD FACS Aria II Cell Sorter. Populations were analyzed using FlowJo.

Wee1 = assay: Contralateral intraductal injection: Wee1 expression in whole MG tissue by RT-qPCR; assay type: in vivo, mouse; conditions: IDI of doxorubicin into pregnant MG vs contralateral DMSO
Method: Nulliparous analysis was performed using adult (10-12-week-old) female mice. For timed pregnancies and lactation analysis, CD-1 pregnant adult females were obtained from Charles Rivers. Embryos were examined at the time of mammary gland harvesting to confirm pregnancy state. […] Plugged mice were considered to be PD0.5 on the day of the observed plug. All females used in this study were age matched.
Mice were anesthetized with isoflurane (VetOne, 501017) Prior to intraductal injections, hair was removed from around the nipples using Nair hair remover. Injections into the duct of the nipple were performed with 33 G needles (Hamilton, 7803-05) and a volume of 40 μl per gland. […]
For RNA isolation from FACS purified populations, mammary gland cell suspensions were blocked using Mouse BD Fc Block™ (BD Biosciences) for 10 min. […] Total RNA quality was analyzed by agarose gel electrophoresis and quantified using an ND-1000 spectrophotometer (NanoDrop). cDNA was prepared from 500-1000 ng of total RNA using iScript cDNA synthesis kit (Bio-Rad, 1708841). Quantitative RT-qPCR was performed in triplicates using SsoAdvanced Universal SYBR Green Supermix, (Bio-Rad, 1725272). […]

## COc1cccc2c1C(=O)c1c(O)c3c(c(O)c1C2=O)C[C@@](O)(C(=O)CO)C[C@@H]3O[C@H]1C[C@H](N)[C@H](O)[C@H](C)O1 [doxorubicin]
HC11 cells; DIP3
  polyploidization (FACS DNA content): increase in polyploidization
HC11 cells; after 24 h
  proportion of tetraploid cells (FACS DNA content): increases
Wee1
  Wee1 expression in whole MG tissue, RT-qPCR: upregulated
